{"source": "patent US20250134792A1", "about": "“COMPOSITIONS AND METHODS FOR TREATING SKIN” (L'Oreal, priority 2023, published 2025)", "key": {"[1]": {"tested_on": "normal human epidermal keratinocytes (NHEK)", "assay": "Proliferation: KI67 staining of NHEKs", "format": "cell-based", "details": "proxylane 0.005%, 0.017%, 0.05%; niacinamide 0.0012%, 0.004%, 0.012%; alone or in combination; FIG. 3", "from_the_text": "Surgical skin samples were taken from adults and subjected to the 0.25% trypsin dermis/epidermis separation method described in Rheinwald to obtain suspensions of normal human epidermal keratinocytes (NHEK) and dermal fibroblasts. […] The NHEK cell cultures were initiated using the 3T3 feeder-layer technique described in Rheinwald J. G., Green H.: Epidermal growth factor and the multiplication of cultured human epidermal keratinocytes.\nKeratinocytes were stained against KI67 and expression was quantified."}, "[2]": {"tested_on": "Normal Human Epidermal Melanocytes-Dark Pigment", "assay": "PGE-2 induced inflammation and melanin synthesis", "format": "cell-based", "details": "30 nM PGE2 stimulated melanocytes; 10 mM (0.12%) niacinamide, proxylane (0.19%); 10 days; FIG. 10", "method": "Normal Human Epidermal Melanocytes-Dark Pigment (Lot 1981687, Passage 3, ThermoFisher, Waltham, MA) were seeded in 6-well plates at a density of 100,000 cells per well. Cells were grown in culture medium supplemented with Gibo Human Melanocyte Growth Supplement-2 (ThermoFisher, Waltham, MA). […] Following the 10 days, cells were trypsinized and the melanin was isolated using NaOH. A standard curve using commercially available melanin was used to calculate the average cellular melanin content using the recorded optical density of the isolated melanin using a microplate reader. Average cellular melanin content was normalized to total protein content."}, "neutrophil elastase": {"biological_target": "T1, neutrophil elastase (Homo sapiens, UniProt P08246)", "T1 sequence (P08246 30-267)": "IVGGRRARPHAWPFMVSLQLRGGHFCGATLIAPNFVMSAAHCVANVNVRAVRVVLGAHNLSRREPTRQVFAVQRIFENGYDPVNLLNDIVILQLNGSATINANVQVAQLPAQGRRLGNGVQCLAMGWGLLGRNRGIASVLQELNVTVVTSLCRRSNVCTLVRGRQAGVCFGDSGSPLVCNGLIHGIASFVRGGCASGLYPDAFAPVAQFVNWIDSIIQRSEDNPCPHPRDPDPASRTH", "details": "alone and in combination; 37° C., fluorescence slope over thirty minutes; FIG. 5"}}, "data": [{"compound": "NC(=O)c1cccnc1", "note": "[vitamin B3, niacinamide]", "values": [{"measurement": "cell proliferation of keratinocytes (KI67 expression)", "setting": "[1]", "value": "capable of stimulating"}, {"measurement": "melanin production (average cellular melanin content normalized to total protein)", "setting": "[2]", "value": "significantly decreases"}, {"measurement": "elastase activity", "setting": "neutrophil elastase", "value": "inhibit"}]}]}
